A short description of data set [1]: Binding affinity to AGGCAGACA oligonucleotide DNA sequence (unknown origin) at 50 nM incubated for 16 hrs by PCR based Bind-n-Seq analysis.
A short description of data set [2]: Binding affinity to AGACTGACA oligonucleotide DNA sequence (unknown origin) at 50 nM incubated for 16 hrs by PCR based Bind-n-Seq analysis.
The nature of data set [3]: Binding affinity to TGGCTAACA oligonucleotide DNA sequence (unknown origin) at 50 nM incubated for 16 hrs by PCR based Bind-n-Seq analysis.
The nature of data set [4]: Binding affinity to AGACAGTCA oligonucleotide DNA sequence (unknown origin) at 50 nM incubated for 16 hrs by PCR based Bind-n-Seq analysis.
A short description of data set [5]: Binding affinity to AGGCTTACA oligonucleotide DNA sequence (unknown origin) at 50 nM incubated for 16 hrs by PCR based Bind-n-Seq analysis.
A short description of data set [6]: Binding affinity to TGGTAGACA oligonucleotide DNA sequence (unknown origin) at 50 nM incubated for 16 hrs by PCR based Bind-n-Seq analysis.
Data set [7] in a line: Binding affinity to ATGCAGACA oligonucleotide DNA sequence (unknown origin) at 50 nM incubated for 16 hrs by PCR based Bind-n-Seq analysis.
Data set [8] is described as follows: Binding affinity to ATGCAGTCA oligonucleotide DNA sequence (unknown origin) at 50 nM incubated for 16 hrs by PCR based Bind-n-Seq analysis.
A short description of data set [9]: Binding affinity to AGGCTGATA oligonucleotide DNA sequence (unknown origin) at 50 nM incubated for 16 hrs by PCR based Bind-n-Seq analysis.
A short description of data set [10]: Binding affinity to CGGCTAACA oligonucleotide DNA sequence (unknown origin) at 50 nM incubated for 16 hrs by PCR based Bind-n-Seq analysis.
Data set [11] is described as follows: Binding affinity to TGTCAGCCT oligonucleotide DNA sequence (unknown origin) at 50 nM incubated for 16 hrs by PCR based Bind-n-Seq analysis.
Data set [12] can be described thus: Binding affinity to TGGCAGACA oligonucleotide DNA sequence (unknown origin) at 50 nM incubated for 16 hrs by PCR based Bind-n-Seq analysis.
A short description of data set [13]: Binding affinity to AGTCAGCCT oligonucleotide DNA sequence (unknown origin) at 50 nM incubated for 16 hrs by PCR based Bind-n-Seq analysis.
Data set [14] can be described thus: Binding affinity to TGGCAGACT oligonucleotide DNA sequence (unknown origin) at 50 nM incubated for 16 hrs by PCR based Bind-n-Seq analysis.
Data set [15] can be described thus: Binding affinity to ATGTCTGCC oligonucleotide DNA sequence (unknown origin) at 50 nM incubated for 16 hrs by PCR based Bind-n-Seq analysis.
Data set [16] in a line: Binding affinity to AGTCGGCCT oligonucleotide DNA sequence (unknown origin) at 50 nM incubated for 16 hrs by PCR based Bind-n-Seq analysis.
A short description of data set [17]: Binding affinity to AGTCTGCCT oligonucleotide DNA sequence (unknown origin) at 50 nM incubated for 16 hrs by PCR based Bind-n-Seq analysis.
Data set [18] in a line: Binding affinity to TTGTCGGCC oligonucleotide DNA sequence (unknown origin) at 50 nM incubated for 16 hrs by PCR based Bind-n-Seq analysis.
Data set [19] is described as follows: Binding affinity to AGGCAGACT oligonucleotide DNA sequence (unknown origin) at 50 nM incubated for 16 hrs by PCR based Bind-n-Seq analysis.
Data set [20] is described as follows: Binding affinity to TAGTCGGCC oligonucleotide DNA sequence (unknown origin) at 50 nM incubated for 16 hrs by PCR based Bind-n-Seq analysis.
Data set [21] can be described thus: Binding affinity to 5'-biotin labeled GCGAGGCAGACACGCTTTTGCGTGTCTGCCTCGC-3' DNA (unknown origin) assessed as association rate by SPR analysis. (In general: In SPR one partner is held on a chip, and binding of the other changes the refractive index at the surface.)
A short description of data set [22]: Binding affinity to 5'-biotin labeled GCGAGGCAGACACGCTTTTGCGTGTCTGCCTCGC-3' DNA (unknown origin) assessed as dissociation rate by SPR analysis.
A short description of data set [23]: Binding affinity to 5'-biotin labeled GCGAGGCAGACACGCTTTTGCGTGTCTGCCTCGC-3' DNA (unknown origin) by SPR analysis.
Data set [24] in a line: Aqueous solubility of the compound […] assessed as saturation concentration by nanodrop analysis. Type of data set: physicochemical.
Data set [25] is described as follows: Binding affinity to GTGTCAGCC oligonucleotide DNA sequence (unknown origin) at 50 nM incubated for 16 hrs by PCR based Bind-n-Seq analysis.
Data set [26] can be described thus: Binding affinity to TGTCAGCGA oligonucleotide DNA sequence (unknown origin) at 50 nM incubated for 16 hrs by PCR based Bind-n-Seq analysis.
Data set [27] in a line: Binding affinity to GGCTGACTG oligonucleotide DNA sequence (unknown origin) at 50 nM incubated for 16 hrs by PCR based Bind-n-Seq analysis.
A short description of data set [28]: Binding affinity to GGTTGACAT oligonucleotide DNA sequence (unknown origin) at 50 nM incubated for 16 hrs by PCR based Bind-n-Seq analysis.
Data set [29] can be described thus: Binding affinity to TAGTCAGCC oligonucleotide DNA sequence (unknown origin) at 50 nM incubated for 16 hrs by PCR based Bind-n-Seq analysis.
Data set [30] is described as follows: Binding affinity to GGGCAGTCA oligonucleotide DNA sequence (unknown origin) at 50 nM incubated for 16 hrs by PCR based Bind-n-Seq analysis.
Data set [31] can be described thus: Binding affinity to GAGTCTCCC oligonucleotide DNA sequence (unknown origin) at 50 nM incubated for 16 hrs by PCR based Bind-n-Seq analysis.
Data set [32] can be described thus: Binding affinity to CTCTCTGCA oligonucleotide DNA sequence (unknown origin) at 50 nM incubated for 16 hrs by PCR based Bind-n-Seq analysis.
A short description of data set [33]: Binding affinity to ACAGCCTCG oligonucleotide DNA sequence (unknown origin) at 50 nM incubated for 16 hrs by PCR based Bind-n-Seq analysis.
A short description of data set [34]: Binding affinity to GTCTCCGAA oligonucleotide DNA sequence (unknown origin) at 50 nM incubated for 16 hrs by PCR based Bind-n-Seq analysis.
The nature of data set [35]: Binding affinity to ATCGGCAGA oligonucleotide DNA sequence (unknown origin) at 50 nM incubated for 16 hrs by PCR based Bind-n-Seq analysis.
Data set [36] is described as follows: Binding affinity to AGGCTCTCA oligonucleotide DNA sequence (unknown origin) at 50 nM incubated for 16 hrs by PCR based Bind-n-Seq analysis.
Data set [37] is described as follows: Binding affinity to AATTTACCT oligonucleotide DNA sequence (unknown origin) at 50 nM incubated for 16 hrs by PCR based Bind-n-Seq analysis.
Data set [38] can be described thus: Binding affinity to GTGAGCCTA oligonucleotide DNA sequence (unknown origin) at 50 nM incubated for 16 hrs by PCR based Bind-n-Seq analysis.
A short description of data set [39]: Binding affinity to GGGCTAGAC oligonucleotide DNA sequence (unknown origin) at 50 nM incubated for 16 hrs by PCR based Bind-n-Seq analysis.

In brackets after ≈: the same amount, converted by molar mass. Activity calls are given as the source filed them. The calls are words filed in the database; no cut-off is given here.

As for `CC(=O)Nc1cn(C)c(C(=O)Nc2cn(C)c(C(=O)Nc3cc(C(=O)NCCC(=O)Nc4cn(C)c(C(=O)Nc5cc(C(=O)Nc6cc(C(=O)NCCCC(=O)Nc7cn(C)c(C(=O)Nc8cc(C(=O)Nc9cc(C(=O)NCCC(=O)Nc%10cn(C)c(C(=O)Nc%11cc(C(=O)Nc%12cc(C(=O)NCCC(=O)NCCCN(C)CCCNC(=O)CCOCCOCCOCCOCCOCCOCCOCCOCCOCCOCCOCCOCCNC(=O)CCCC[C@@H]%13SC[C@@H]%14NC(=O)N[C@@H]%14%13)n(C)c%12)n(C)c%11)n%10)n(C)c9)n(C)c8)n7)n(C)c6)n(C)c5)n4)n(C)c3)n2)n1`, the result in data set [1], in data set [2], in data set [3], in data set [4], in data set [5] and in data set [6] was Active. For the same molecule, the result in data set [7], in data set [8], in data set [9] and in data set [10] was Active.
Regarding `CC(=O)Nc1cn(C)c(C(=O)Nc2cn(C)c(C(=O)NCCOCCOCC(=O)Nc3cn(C)c(C(=O)Nc4cc(C(=O)Nc5cc(C(=O)NCCCC(=O)Nc6cn(C)c(C(=O)Nc7cc(C(=O)NCCOCCOCC(=O)Nc8cn(C)c(C(=O)Nc9cc(C(=O)Nc%10cc(C(=O)NCCC(=O)NCCCN(C)CCCNC(=O)CCOCCOCCOCCOCCOCCOCCOCCOCCOCCOCCOCCOCCNC(=O)CCCC[C@@H]%11SC[C@@H]%12NC(=O)N[C@@H]%12%11)n(C)c%10)n(C)c9)n8)n(C)c7)n6)n(C)c5)n(C)c4)n3)n2)n1`, the outcome in [11], in [12], in data set [13], in data set [14], in [15] and in data set [16] was Active. Also, the outcome in data set [17], in data set [18], in data set [19] and in data set [20] was Active.
For orientation: solubility means the dissolved amount per volume that the medium holds. For the molecule `CC(=O)Nc1cn(C)c(C(=O)Nc2cn(C)c(C(=O)NCCOCCOCC(=O)Nc3cn(C)c(C(=O)Nc4cc(C(=O)Nc5cc(C(=O)NCCCC(=O)Nc6cn(C)c(C(=O)Nc7cc(C(=O)Nc8cc(C(=O)NCCC(=O)Nc9cn(C)c(C(=O)Nc%10cc(C(=O)Nc%11cc(C(=O)NCCC(=O)NCCCN(C)CCCN)n(C)c%11)n(C)c%10)n9)n(C)c8)n(C)c7)n6)n(C)c5)n(C)c4)n3)n2)n1`, the Ka in [21] came to 1 ×10⁵ /Ms. The Kd in data set [22] was 1.8 ×10⁻³ /s; in [23] it was 18 nM. In addition, the solubility in data set [24] is 12.2 mM (≈ 23.3 mg/mL).
Turning to `CC(=O)Nc1cn(C)c(C(=O)Nc2cn(C)c(C(=O)NCCOCCOCC(=O)Nc3cn(C)c(C(=O)Nc4cc(C(=O)Nc5cc(C(=O)NCCCC(=O)Nc6cn(C)c(C(=O)Nc7cc(C(=O)Nc8cc(C(=O)NCCC(=O)Nc9cn(C)c(C(=O)Nc%10cc(C(=O)Nc%11cc(C(=O)NCCC(=O)NCCCN(C)CCCNC(=O)CCOCCOCCOCCOCCOCCOCCOCCOCCOCCOCCOCCOCCNC(=O)CCCC[C@@H]%12SC[C@@H]%13NC(=O)N[C@@H]%13%12)n(C)c%11)n(C)c%10)n9)n(C)c8)n(C)c7)n6)n(C)c5)n(C)c4)n3)n2)n1`, the result in data set [11], in data set [12], in data set [25], in data set [26], in data set [13] and in data set [27] was Active. Besides, the result in data set [14], in data set [28], in [29] and in data set [15] was Active.
With `CC(=O)Nc1cn(C)c(C(=O)Nc2cn(C)c(C(=O)NCCC(=O)NCCC(=O)Nc3cn(C)c(C(=O)Nc4cc(C(=O)Nc5cc(C(=O)NCCCC(=O)Nc6cn(C)c(C(=O)Nc7cc(C(=O)Nc8cc(C(=O)NCCC(=O)Nc9cn(C)c(C(=O)Nc%10cc(C(=O)Nc%11cc(C(=O)NCCC(=O)NCCCN(C)CCCNC(=O)CCOCCOCCOCCOCCOCCOCCOCCOCCOCCOCCOCCOCCNC(=O)CCCC[C@@H]%12SC[C@@H]%13NC(=O)N[C@@H]%13%12)n(C)c%11)n(C)c%10)n9)n(C)c8)n(C)c7)n6)n(C)c5)n(C)c4)n3)n2)n1`, the result in [30], in data set [31], in [32], in [33], in data set [34] and in data set [35] was Active. In addition, the result in data set [36], in data set [37], in [38] and in data set [39] was Active.

These data come from ChEMBL document CHEMBL3817807, “Sequence-specific DNA binding by long hairpin pyrrole-imidazole polyamides containing an 8-amino-3,6-dioxaoctanoic acid unit” (Bioorg Med Chem, 2016).
